# Test results published in PubChem BioAssay AID270 (DTP/NCI, 2004).
# “And” between values parts separate entries of the source, which are not always exact repeats. Equal values may be shown once. Inconclusive results are not listed.
# Test system: BDF1 mice, s.c. Lewis lung carcinoma, T/C %
# Test: NCI In Vivo Anticancer Drug Screen. Data for tumor model Lewis Lung Carcinoma (subcutaneous) in B6D2F1 (BDF1) mice
# In short: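 Tumor-bearing mice were treated with test compound, and either survival or tumor size was recorded. Values are the treated-group measurement divided by that of the vehicle-treated control group.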
# [1] = endpoint: mean tumor weight, dose: 12.5 mg/kg/injection, schedule: Q01DX011 (ip), vehicle: saline, higher = larger tumour
# [2] = endpoint: median survival time, dose: 0.25 mg/kg/injection, schedule: Q01DX009 (ip), vehicle: Klucel (hydroxypropylcellulose) (HPC), higher = longer survival
# [3] = endpoint: median survival time, dose: 0.5 mg/kg/injection, schedule: Q01DX009 (ip), vehicle: Klucel (hydroxypropylcellulose) (HPC), higher = longer survival
# [4] = endpoint: median survival time, dose: 1.0 mg/kg/injection, schedule: Q01DX009 (ip), vehicle: Klucel (hydroxypropylcellulose) (HPC), higher = longer survival
# [5] = endpoint: median survival time, dose: 12.5 mg/kg/injection, schedule: Q01DX009 (ip), vehicle: Klucel (hydroxypropylcellulose) (HPC), higher = longer survival
compound,measurement,setting,value
CC(/C=N/N=C(N)N)=N/N=C(N)N,T/C,[1],96 % of control
same,T/C,"endpoint: mean tumor weight, dose: 25.0 mg/kg/injection, schedule: Q01DX011 (ip), vehicle: saline, higher = larger tumour",69 % of control
same,T/C,"endpoint: mean tumor weight, dose: 50.0 mg/kg/injection, schedule: Q01DX011 (ip), vehicle: saline, higher = larger tumour",94 % of control
CC[n+]1ccc(Nc2ccc(NC(=O)c3ccc(Nc4cc[n+](CC)c5ccc(N)cc45)cc3)cc2)cc1,T/C,"endpoint: mean tumor weight, dose: 0.5 mg/kg/injection, schedule: Q01DX011 (ip), vehicle: saline, higher = larger tumour",86 % of control
same,T/C,"endpoint: mean tumor weight, dose: 1.0 mg/kg/injection, schedule: Q01DX011 (ip), vehicle: saline, higher = larger tumour",107 % of control
same,T/C,"endpoint: mean tumor weight, dose: 2.0 mg/kg/injection, schedule: Q01DX011 (ip), vehicle: saline, higher = larger tumour",73 % of control
same,T/C,"endpoint: mean tumor weight, dose: 4.0 mg/kg/injection, schedule: Q01DX011 (ip), vehicle: saline, higher = larger tumour",33 % of control
Cc1c2cc3c(c1O)C(=O)CC(O3)c1ccc(O)c(c1)-c1ccc(O)c(c1)C(=O)OCC1OC(O2)C(O)C(O)C1O (stereo not drawn),T/C,"endpoint: median survival time, dose: 0.13 mg/kg/injection, schedule: Q01DX009 (ip), vehicle: Klucel (hydroxypropylcellulose) (HPC), higher = longer survival",112 % of control
same,T/C,[2],102 % of control
same,T/C,[3],100 % of control
same,T/C,[4],101 % of control
C=C1C(=O)O[C@H]2[C@H]1[C@H](OC(=O)/C(C)=C\C)CC(=C)[C@@H]1[C@H](O)[C@H]3O[C@@]3(C)[C@@]12O,T/C,"endpoint: mean tumor weight, dose: 7.5 mg/kg/injection, schedule: Q01DX011 (ip), vehicle: saline, higher = larger tumour",63 % of control
same,T/C,"endpoint: mean tumor weight, dose: 15.0 mg/kg/injection, schedule: Q01DX011 (ip), vehicle: saline, higher = larger tumour",70 % of control
same,T/C,"endpoint: mean tumor weight, dose: 30.0 mg/kg/injection, schedule: Q01DX011 (ip), vehicle: saline, higher = larger tumour",63 % of control
COC(COC(N)=O)C1=C(N2CC2)C(=O)C(C)=C(N2CC2)C1=O (stereo not drawn),T/C,"endpoint: median survival time, dose: 0.03 mg/kg/injection, schedule: Q01DX009 (ip), vehicle: Klucel (hydroxypropylcellulose) (HPC), higher = longer survival",96 % of control
same,T/C,"endpoint: median survival time, dose: 0.12 mg/kg/injection, schedule: Q01DX009 (ip), vehicle: Klucel (hydroxypropylcellulose) (HPC), higher = longer survival",103 % of control
same,T/C,[2],107 % of control
same,T/C,[3],119 % of control
same,T/C,[4],93 % of control
COc1ccc2c(Cc3ccccc3)cncc2c1O,T/C,[5],90 % of control
same,T/C,"endpoint: median survival time, dose: 25.0 mg/kg/injection, schedule: Q01DX009 (ip), vehicle: Klucel (hydroxypropylcellulose) (HPC), higher = longer survival",101 % of control
same,T/C,"endpoint: median survival time, dose: 50.0 mg/kg/injection, schedule: Q01DX009 (ip), vehicle: Klucel (hydroxypropylcellulose) (HPC), higher = longer survival",91 % of control
same,T/C,"endpoint: median survival time, dose: 100.0 mg/kg/injection, schedule: Q01DX009 (ip), vehicle: Klucel (hydroxypropylcellulose) (HPC), higher = longer survival",101 % of control
CCCCCCCCCCCCCCCCCC(=O)NN,T/C,"endpoint: median survival time, dose: 200.0 mg/kg/injection, schedule: Q01DX009 (ip), vehicle: Klucel (hydroxypropylcellulose) (HPC), higher = longer survival",120 % of control
CNC1C(O)C(NC)C2OC3(O)C(=O)CC(C)OC3OC2C1O (stereo not drawn),T/C,"endpoint: median survival time, dose: 25.0 mg/kg/injection, schedule: Q01DX009 (ip), vehicle: saline, higher = longer survival",111 % of control
same,T/C,"endpoint: median survival time, dose: 50.0 mg/kg/injection, schedule: Q01DX009 (ip), vehicle: saline, higher = longer survival",96 % of control
same,T/C,"endpoint: median survival time, dose: 100.0 mg/kg/injection, schedule: Q01DX009 (ip), vehicle: saline, higher = longer survival",110 % of control
Cc1nnc(N)s1,T/C,"endpoint: mean tumor weight, dose: 133.0 mg/kg/injection, schedule: Q01DX011 (ip), vehicle: other, higher = larger tumour",80 % of control
same,T/C,"endpoint: mean tumor weight, dose: 200.0 mg/kg/injection, schedule: Q01DX011 (ip), vehicle: other, higher = larger tumour",77 % of control
same,T/C,"endpoint: mean tumor weight, dose: 300.0 mg/kg/injection, schedule: Q01DX011 (ip), vehicle: other, higher = larger tumour",79 % of control
NC(=S)N/N=C/c1ccc(O)cn1,T/C,"endpoint: median survival time, dose: 18.8 mg/kg/injection, schedule: Q01DX009 (ip), vehicle: saline with Tween-80, higher = longer survival",94 % of control
same,T/C,"endpoint: median survival time, dose: 37.5 mg/kg/injection, schedule: Q01DX009 (ip), vehicle: saline with Tween-80, higher = longer survival",106 % of control and 119 % of control
same,T/C,"endpoint: median survival time, dose: 75.0 mg/kg/injection, schedule: Q01DX009 (ip), vehicle: saline with Tween-80, higher = longer survival",97 % of control
same,T/C,"endpoint: median survival time, dose: 150.0 mg/kg/injection, schedule: Q01DX009 (ip), vehicle: saline with Tween-80, higher = longer survival",121 % of control
C[n+]1ccc(Nc2ccc(NC(=O)c3ccc(Nc4cc[n+](C)c5ccc(N)cc45)cc3N)cc2)cc1,T/C,"endpoint: mean tumor weight, dose: 6.25 mg/kg/injection, schedule: Q01DX011 (ip), vehicle: saline, higher = larger tumour",158 % of control
same,T/C,[1],40 % of control
same,T/C,"endpoint: median survival time, dose: 3.13 mg/kg/injection, schedule: Q01DX009 (ip), vehicle: Klucel (hydroxypropylcellulose) (HPC), higher = longer survival",243 % of control
same,T/C,[5],244 % of control
